In US20100256145A1, “USE OF KCNQ POTASSIUM CHANNEL OPENERS FOR REDUCING SYMPTOMS OF OR TREATING DISORDERS OR CONDITIONS WHEREIN THE DOPAMINERGIC SYSTEM IS DISRUPTED” (H. LUNDBECK A/S, priority 2007, published 2010):

System: sensitised amphetamine response (hyperactivity) in mice
Experiment: Sensitised behavioural response to amphetamine in mice
Assay type: in vivo
Details: Mus musculus; amphetamine-pretreated mice; s.c. 30 min before D-amphetamine 1.25 mg/kg challenge; Std. Dev. in brackets; read-out: Inhibition of the sensitised amphetamine response, ED50
Experimental: Subjects. Male NMRI mice (Charles River) weighing approx. 35 g are used. […] 12 mice are used pr experimental group.
Experimental procedure. […] For the 17 days between the last day of pre-treatment and the test day, the animals are kept in their homecage receiving the care as described above. The experiment is performed under normal light conditions in an undisturbed room. The mice are treated with test substance or vehicle and placed individually in the test cages for 30 min. […] 5×8 infrared light sources and photocells interspaced by 4 cm monitor the locomotor activity. The light beams cross the cage 1.8 cm above the bottom of the cage.
Administration of compounds.
Data analyses. The total counts obtained in the 30 min test are averaged pr animal group and used for calculation of drug effects in the following manner: The average motility induced by an amphetamine challenge in amphetamine-pretreated animals is used as the sensitised response. The average motility induced by a vehicle challenge to vehicle-pretreated animals is used as a baseline motility response. […] Similarly an ED50 for inhibiting baseline motility is calculated by expressed the motility response in vehicle-pretreated, vehicle-challenged, drug-treated animals relative to the baseline motility response. A therapeutic index value is subsequently calculated by dividing the first ED50 by the second.

Which ED50 does the source give for `Cc1nc(N2CCOCC2)nc(C)c1NC(=O)Cc1ccc(F)cc1` [N-(4,6-Dimethyl-2-morpholin-4-yl-pyrimidin-5-yl)-2-(4-fluoro-phenyl)-acetamide] here?
Its ED50 is 0.4 mg/kg.
